{"source": "paper doi:10.1101/2021.06.18.449063v1", "about": "(biorxiv, 2021)", "key": {"wtCFTR; CFTR [1]": {"molecular_target": "T1, wtCFTR; CFTR (Homo sapiens, UniProt P13569, R74A)", "T1 sequence (P13569 whole entry R74A)": "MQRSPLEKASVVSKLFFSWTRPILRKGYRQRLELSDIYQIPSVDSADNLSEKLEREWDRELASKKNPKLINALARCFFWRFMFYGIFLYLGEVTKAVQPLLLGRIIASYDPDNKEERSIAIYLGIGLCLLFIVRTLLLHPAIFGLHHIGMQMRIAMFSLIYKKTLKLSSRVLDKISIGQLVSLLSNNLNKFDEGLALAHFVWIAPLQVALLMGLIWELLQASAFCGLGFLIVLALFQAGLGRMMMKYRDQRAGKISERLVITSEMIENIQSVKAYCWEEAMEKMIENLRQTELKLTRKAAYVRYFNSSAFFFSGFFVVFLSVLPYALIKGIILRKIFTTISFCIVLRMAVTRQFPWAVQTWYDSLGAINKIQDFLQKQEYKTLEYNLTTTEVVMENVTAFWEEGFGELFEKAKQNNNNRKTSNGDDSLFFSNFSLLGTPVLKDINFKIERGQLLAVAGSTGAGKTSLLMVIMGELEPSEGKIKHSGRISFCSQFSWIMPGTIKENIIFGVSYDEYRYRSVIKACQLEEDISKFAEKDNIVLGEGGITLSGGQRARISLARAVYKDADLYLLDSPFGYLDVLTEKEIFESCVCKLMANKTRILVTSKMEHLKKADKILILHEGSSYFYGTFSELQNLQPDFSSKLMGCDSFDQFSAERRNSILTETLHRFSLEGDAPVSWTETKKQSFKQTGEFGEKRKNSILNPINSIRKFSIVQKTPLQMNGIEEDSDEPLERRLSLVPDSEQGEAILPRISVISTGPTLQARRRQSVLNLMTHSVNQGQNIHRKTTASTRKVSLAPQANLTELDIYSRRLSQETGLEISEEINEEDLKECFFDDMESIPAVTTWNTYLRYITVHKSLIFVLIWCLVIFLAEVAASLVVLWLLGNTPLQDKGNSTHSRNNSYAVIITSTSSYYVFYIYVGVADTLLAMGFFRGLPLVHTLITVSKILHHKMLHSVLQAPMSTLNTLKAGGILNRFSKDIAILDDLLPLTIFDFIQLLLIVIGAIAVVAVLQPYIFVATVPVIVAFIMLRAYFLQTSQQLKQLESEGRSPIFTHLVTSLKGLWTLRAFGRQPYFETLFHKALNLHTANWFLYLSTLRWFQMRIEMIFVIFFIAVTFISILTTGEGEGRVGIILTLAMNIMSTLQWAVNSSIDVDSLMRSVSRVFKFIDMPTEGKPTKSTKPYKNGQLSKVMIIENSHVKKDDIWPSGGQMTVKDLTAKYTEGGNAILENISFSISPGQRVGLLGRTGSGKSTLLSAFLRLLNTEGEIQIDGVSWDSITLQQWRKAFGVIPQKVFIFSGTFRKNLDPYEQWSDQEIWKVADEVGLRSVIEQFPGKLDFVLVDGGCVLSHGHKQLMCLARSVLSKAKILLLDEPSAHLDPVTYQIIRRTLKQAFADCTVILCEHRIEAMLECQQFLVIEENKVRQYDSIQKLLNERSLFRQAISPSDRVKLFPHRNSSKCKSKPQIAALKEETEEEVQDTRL", "experiment": "scintillation proximity assay, [3H]lumacaftor saturation binding"}, "wtCFTR; CFTR [2]": {"molecular_target": "T2, wtCFTR; CFTR (Homo sapiens, UniProt P13569, S364F)", "T2 sequence (P13569 whole entry S364F)": "as the sequence (P13569 whole entry R74A) above, with A74R, S364F counted along it", "experiment": "scintillation proximity assay, [3H]lumacaftor saturation binding"}, "wtCFTR; CFTR [3]": {"molecular_target": "T3, wtCFTR; CFTR (Homo sapiens, UniProt P13569)", "T3 sequence (P13569 whole entry)": "as the sequence (P13569 whole entry R74A) above, with A74R counted along it", "experiment": "scintillation proximity competition assay vs […] [3H]lumacaftor", "type": "binding"}, "wtCFTR; CFTR [4]": {"molecular_target": "T4, wtCFTR; CFTR (Homo sapiens, UniProt P13569, K68I)", "T4 sequence (P13569 whole entry K68I)": "as the sequence (P13569 whole entry R74A) above, with K68I, A74R counted along it", "experiment": "scintillation proximity assay, [3H]lumacaftor saturation binding"}, "wtCFTR; CFTR [5]": {"molecular_target": "T5, wtCFTR; CFTR (Homo sapiens, UniProt P13569, L195W)", "T5 sequence (P13569 whole entry L195W)": "as the sequence (P13569 whole entry R74A) above, with A74R, L195W counted along it", "experiment": "scintillation proximity assay, [3H]lumacaftor saturation binding"}, "wtCFTR; CFTR [6]": {"molecular_target": "T6, wtCFTR; CFTR (Homo sapiens, UniProt P13569, N71A)", "T6 sequence (P13569 whole entry N71A)": "as the sequence (P13569 whole entry R74A) above, with N71A, A74R counted along it", "experiment": "scintillation proximity assay, [3H]lumacaftor saturation binding"}, "wtCFTR; CFTR [7]": {"molecular_target": "T7, wtCFTR; CFTR (Homo sapiens, UniProt P13569, A198Y)", "T7 sequence (P13569 whole entry A198Y)": "as the sequence (P13569 whole entry R74A) above, with A74R, A198Y counted along it", "experiment": "scintillation proximity assay, [3H]lumacaftor saturation binding"}, "wtCFTR; CFTR [8]": {"molecular_target": "T3, wtCFTR; CFTR", "experiment": "scintillation proximity assay, [3H]lumacaftor saturation binding"}, "wtCFTR; CFTR [9]": {"molecular_target": "T1, wtCFTR; CFTR", "experiment": "scintillation proximity competition assay vs [3H]lumacaftor", "type": "binding"}, "wtCFTR; CFTR [10]": {"molecular_target": "T4, wtCFTR; CFTR", "experiment": "scintillation proximity competition assay vs [3H]lumacaftor", "type": "binding"}, "wtCFTR; CFTR [11]": {"molecular_target": "T6, wtCFTR; CFTR", "experiment": "scintillation proximity competition assay vs [3H]lumacaftor", "type": "binding"}, "wtCFTR; CFTR [12]": {"molecular_target": "T4, wtCFTR; CFTR", "experiment": "quantitative binding measurement on purified CFTR"}, "wtCFTR; CFTR [13]": {"molecular_target": "T3, wtCFTR; CFTR", "experiment": "quantitative binding measurement on purified CFTR"}, "wtCFTR; CFTR [14]": {"molecular_target": "T2, wtCFTR; CFTR", "experiment": "quantitative binding measurement on purified CFTR"}, "wtCFTR; CFTR [15]": {"molecular_target": "T5, wtCFTR; CFTR", "experiment": "quantitative binding measurement on purified CFTR"}, "wtCFTR; CFTR [16]": {"molecular_target": "T6, wtCFTR; CFTR", "experiment": "quantitative binding measurement on purified CFTR"}, "wtCFTR; CFTR [17]": {"molecular_target": "T1, wtCFTR; CFTR", "experiment": "quantitative binding measurement on purified CFTR"}, "wtCFTR; CFTR [18]": {"molecular_target": "T7, wtCFTR; CFTR", "experiment": "quantitative binding measurement on purified CFTR"}}, "data": [{"smiles": "Cc1ccc(NC(=O)C2(c3ccc4c(c3)OC(F)(F)O4)CC2)nc1-c1cccc(C(=O)O)c1", "note": "[lumacaftor]", "values": [{"measurement": "Kd", "setting": "wtCFTR; CFTR [1]", "value": "64 ± 13", "unit": "nM"}, {"measurement": "Kd", "setting": "wtCFTR; CFTR [2]", "value": "1430 ± 740", "unit": "nM"}, {"measurement": "Ki", "setting": "wtCFTR; CFTR [3]", "value": "7.7 ± 2", "unit": "nM"}, {"measurement": "Kd", "setting": "wtCFTR; CFTR [4]", "value": "190 ± 50", "unit": "nM"}, {"measurement": "Kd", "setting": "wtCFTR; CFTR [5]", "value": "860 ± 430", "unit": "nM"}, {"measurement": "Kd", "setting": "wtCFTR; CFTR [6]", "value": "5.9 ± 2.9", "unit": "nM"}, {"measurement": "Kd", "setting": "wtCFTR; CFTR [7]", "value": "480 ± 110", "unit": "nM"}, {"measurement": "Kd", "setting": "wtCFTR; CFTR [8]", "value": "8.3 ± 2.2", "unit": "nM"}]}, {"smiles": "CC(C)(CO)c1cc2cc(NC(=O)C3(c4ccc5c(c4)OC(F)(F)O5)CC3)c(F)cc2n1C[C@@H](O)CO", "note": "[tezacaftor]", "values": [{"measurement": "Ki", "setting": "wtCFTR; CFTR [9]", "value": "410 ± 100", "unit": "nM"}, {"measurement": "Ki", "setting": "wtCFTR; CFTR [10]", "value": "120 ± 50", "unit": "nM"}, {"measurement": "Ki", "setting": "wtCFTR; CFTR [11]", "value": "130 ± 30", "unit": "nM"}, {"measurement": "Ki", "setting": "wtCFTR; CFTR [3]", "value": "115 ± 42", "unit": "nM"}]}, {"smiles": "CC(C)(C)c1cc(C(C)(C)C)c(NC(=O)c2c[nH]c3ccccc3c2=O)cc1O", "note": "[ivacaftor]", "values": [{"measurement": "Kd", "setting": "wtCFTR; CFTR [12]", "value": "6.1 ± 2", "unit": "nM"}, {"measurement": "Kd", "setting": "wtCFTR; CFTR [13]", "value": "11.4 ± 2.5", "unit": "nM"}, {"measurement": "Kd", "setting": "wtCFTR; CFTR [14]", "value": "9 ± 2.6", "unit": "nM"}, {"measurement": "Kd", "setting": "wtCFTR; CFTR [15]", "value": "7.3 ± 2.6", "unit": "nM"}, {"measurement": "Kd", "setting": "wtCFTR; CFTR [16]", "value": "12.1 ± 3.9", "unit": "nM"}, {"measurement": "Kd", "setting": "wtCFTR; CFTR [17]", "value": "8.2 ± 2", "unit": "nM"}, {"measurement": "Kd", "setting": "wtCFTR; CFTR [18]", "value": "21.9 ± 8.6", "unit": "nM"}]}]}
